Source: article PMC10226132, “First-in-Class Selective Inhibitors of the Lysine Acetyltransferase KAT8” (Journal of Medicinal Chemistry, 2023)

What was measured:
H460 cells = assay: MTT cell proliferation assay, H460; assay type: cell-based, human; details: 10, 25, 50, 100 μM, 72 h
Text: (§1) Human commercially available AML U937, breast cancer MCF7, lung adenocarcinoma NCI-H460, H1299 and A-549, glioblastoma U251, B lymphocyte AHH1 cell lines were maintained in compete 10% foetal bovine serum (FBS,) RPMI 1640 (Euroclone, Milan, IT) medium. Human commercially available colon cancer HCT116 and HT29 lines and cervix adenocarcinoma HeLa cells were maintained in compete 10% FBS Dulbecco’s Modified Eagle Medium (DMEM) high glucose medium (Euroclone). L-Glutamine, FBS, and penicillin streptomycin mixture added to medium were obtained from Euroclone. All cell lines were cultured at 37 °C in a humidified atmosphere of 5% CO2:95% air and were tested for mycoplasma contamination routinely by RT-PCR.
(§2) For analysis of cell proliferation, cells were plated in sextuplicate on 96-well plates in complete media. After 24 h, cells were exposed to different drugs for 72 h. The inhibitory effect of different drugs was assessed by MTT (Sigma, St. Louis, MO, USA) colorimetric assays as previously reported.[67] Aqueous DMSO (0.5% v/v) was used as a control (untreated). The results are reported as “viability of drug-treated cells/viability of untreated cells” × 100 and represent the average ±SD of three independent experiments. IC50 values were using fitted by nonlinear regression using GraphPad Prism 8.0.

H1299 cells = assay: MTT cell proliferation assay, H1299; assay type: cell-based, human; details: for antiproliferative activity in H1299: 10, 25, 50, 100 μM, 72 h; for IC50: Homo sapiens, NCI-H1299, 72 h treatment, MTT
Text: as §1, §2

HCT116 cells = assay: Annexin V/PI analysis, HCT116; assay type: cell-based, human; details: 72 h; for apoptotic effect in combination with chloroquine (Annexin V), HCT116: 100 μM compound + CQ 10 μM; for apoptotic cell population (Annexin V), HCT116: 50 and 100 μM, compared to control
Protocol: For the analysis of the progression of cells through cell cycle phases and sub-G1 peak identification, 24 h after plating, cells were treated with the different compounds. After 72 h, both floating and adherent cells were collected and fixed with cold 70% ethanol. At least 24 h after fixation, cells were incubated with 0.025 mg/mL Propidium Iodide for 15 min at room temperature and analyzed. For Annexin V analysis, 24 h after plating, cells were treated with 50 and 100 μM of the compounds. In the case of chloroquine experiments, 10 μM chloroquine (Sigma-Aldrich, A9165) was added 30 min before compounds. 72 h after treatment, both floating and adherent cells were collected and stained with an Annexin V-FITC apoptosis detection kit (ENZO #ALX-850-020-KI). Samples were incubated 15 min in the dark at rt, and 10,000 events were then analyzed.

[1] = tested on: normal human lung fibroblasts (NHLF); assay: Proliferation of normal human lung fibroblasts (NHLF); assay type: cell-based; details: 25, 50, 100, 200 μM, 72 h
Protocol: as §2

KAT2A = biological target: T1, KAT2A (Homo sapiens, UniProt Q92830); assay: HotSpot KAT assay, KAT2A; assay type: biochemical; details: 200 μM, NI = no inhibition; for inhibition at 200 µM: read-out: % inhibition at 200 μM KAT2A (15 nM)
T1 construct: human KAT2A (aa 323–837, 15 nM); purchased Reaction Biology Corporation
T1 sequence (Q92830 323-837): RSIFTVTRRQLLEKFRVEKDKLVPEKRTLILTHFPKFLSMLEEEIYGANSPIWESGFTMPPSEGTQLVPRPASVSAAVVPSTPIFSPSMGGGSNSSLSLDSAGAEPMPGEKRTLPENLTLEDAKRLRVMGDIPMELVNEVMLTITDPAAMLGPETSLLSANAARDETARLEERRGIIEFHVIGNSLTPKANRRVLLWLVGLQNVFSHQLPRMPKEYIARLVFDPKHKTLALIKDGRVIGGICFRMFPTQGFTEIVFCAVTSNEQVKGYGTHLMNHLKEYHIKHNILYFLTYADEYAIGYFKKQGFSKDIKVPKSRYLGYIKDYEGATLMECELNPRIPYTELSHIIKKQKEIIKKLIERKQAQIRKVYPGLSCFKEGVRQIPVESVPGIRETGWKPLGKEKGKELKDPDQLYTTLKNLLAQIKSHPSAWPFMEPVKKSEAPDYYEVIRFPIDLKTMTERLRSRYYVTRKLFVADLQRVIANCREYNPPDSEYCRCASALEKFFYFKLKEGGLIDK
Protocol: The effects of the compounds on other KATs were determined using the HotSpot KAT assay (Reaction Biology Corporation, Malvern, PA, USA) according to the supplier’s procedure. The recombinant catalytic domains of human KAT2A (aa 323–837, 15 nM), KAT2B (aa 492–658, 25 nM), KAT3B (aa 1284–1672, 1 nM), KAT6A (aa 488–778, 10 nM), KAT6B (aa 657–1069, 10 nM), and full length human KAT5 (25 nM) and KAT7 (25 nM) were used. Each enzyme was incubated with the relevant histone peptide [H3 peptide for KAT2A, KAT2B, KAT3B, KAT6A, and KAT7 (2.5–5 μM, depending on the KAT isoform); H2A peptide for KAT5 (1.25 μM); H4 peptide for KAT6B (2.5 μM)] as a substrate and radio-isotope-labeled [^3H]Acetyl-CoA (0.2–1.5 μM, depending on the KAT isoform) as an acetyl donor in the assay buffer [50 mM Tris–HCl (pH 8.0), 50 mM NaCl, 0.1 mM EDTA, 1 mM DTT, 0.1 mM PMSF, 1% DMSO] for 1 h at 30 °C in the presence or absence of various compounds (1% DMSO final) titrated in a 2-fold serial dilution starting at 200 μM. Histone peptide acetylation was assessed by liquid scintillation counting using a Tri-Carb 2800TR Liquid Scintillation Analyzer (Perkin Elmer). Experiments were performed in biological triplicates. Signal reduction compared to control was plotted (as inhibition percentage) as a function of compound concentration. In cases in which an IC50 was calculated, the values were fitted by nonlinear regression (GraphPad Prism 8.0).

H1299-EGFP-LC3 cells = assay: Fluorescence microscopy of autophagosomes in EGFP-LC3 H1299 cells; assay type: cell-based, human; details: increasing doses, 48 h
Protocol: The stable EGFP-LC3 H1299 cell line was used to detect autophagic structures by fluorescence spinning disk microscopy. Cells were grown on glass coverslips, treated with compounds for 48 h and fixed in 3.7% formaldehyde (Sigma, F1635) DNA was counterstained with 0.05 μg/mL DAPI (4,6-diamidino-2-phenylindole; Sigma-Aldrich, D9542). At least 500 cells were counted for each experimental point, and cells showing ≥15 dots were considered positive. Dots were counted using a pipeline created in a previous work on the CellProfiler software.[68] Data are presented as median with interquartile range. Samples were observed under a Nikon Eclipse Ti2 microscope with a 60× (1.4 NA) objective, equipped with a CrestOptics X-Light V3 confocal spinning disk and a back illuminated Kinetix sCMOS camera.

Row | IC50 (H1299 cells) [µM] | % inhibition at 200 μM KAT2A (15 nM) (KAT2A) | inhibition at 200 µM (KAT2A) [%] | SMILES | antiproliferative activity in H460 (H460 cells) | antiproliferative activity in H1299 (H1299 cells) | apoptotic effect in combination with chloroquine (Annexin V), HCT116 (HCT116 cells) | apoptotic cell population (Annexin V), HCT116 (HCT116 cells) | effect on proliferation of NHLF [1] | EGFP-LC3 dots per cell (H1299-EGFP-LC3 cells)
1 | 41.6 ± 6.8 | did not inhibit | 0 | O=C(O)c1ccc(N2N=C(c3ccccc3)/C(=C/c3ccc[nH]3)C2=O)cc1 [Compound 34, (Z)-4-(4-((1H-Pyrrol-2-yl)methylene)-5-oxo-3-phenyl-4,5-dihydro-1H-pyrazol-1-yl)benzoic Acid] | essentially inactive | dose-dependent antiproliferative effects | increased the apoptotic effect | only a slight increase in apoptotic cell population | did not significantly affect the proliferation | significantly increased
2 | 52.1 ± 10.6 | did not inhibit | 0 | CC1=NN(c2ccc(C(=O)O)cc2)C(=O)/C1=C\c1ccc[nH]1 [Compound 19, (Z)-4-(4-((1H-Pyrrol-2-yl)methylene)-3-methyl-5-oxo-4,5-dihydro-1H-pyrazol-1-yl)benzoic Acid] | inhibited H460 proliferation | dose-dependent antiproliferative effects | increased the apoptotic effect | only a slight increase in apoptotic cell population | did not significantly affect the proliferation | significantly increased
